In patent US20100015042A1, “Combine radiation therapy and chemotherapy for treating cancer” (priority 2008, published 2010):

Key:
[1] = tested on: CT26 colon carcinoma tumors; test: Colon carcinoma tumor growth and cure, two 224Ra wires with 5-FU; format: in vivo, Balb/c mice; settings: 5-FU 75 mg/kg 24 hours prior to wires; tumors 6-7 mm in diameter
Method: FIG. 7 is a graph showing the effect of two ^224Ra-loaded wires combined with 5-FU treatment on colon cancers. Treatment was applied to Balb/c mice bearing 6-7 mm in diameter tumors. Two ^224Ra wires: Tumor bearing mice treated with 2 ^224Ra wires, carrying activities in the range of 27.9-35.5 kBq (n=5). Two ^224Ra wires combined with 5-FU: administration of 75 mg/kg 5-FU 24 hours prior to treatment with 2 ^224Ra wires, carrying activities in the range of 32.1-33.8 kBq (n=5). Two Inert wires combined with 5-FU: administration of 75 mg/kg 5-FU 24 hours prior to treatment with 2 inert wires (n=6). Two Inert wires: Tumor bearing mice treated with 2 inert wires (n=6).
Tumor cell inoculation: Animals were inoculated intra-cutaneously with 5·10^5 SQ2 cells in 0.2 ml HBSS or 10^5 (CT26 and Panc-02) in 0.1 ml of HBSS (Biological industries, Beit haemek, Israel) into the low lateral side of the back. Local tumor growth was determined by measuring three mutually orthogonal tumor diameters with a digital caliper (Mitutoyo, Japan). The volume of tumor was calculated using the formula: V=(π/6)·D1D2D3, where D1, D2, D3 stand for the measured diameters […]

[2] = tested on: SQ2 cells; test: XTT cell proliferation assay on radioactive (224Ra-implanted) microplates; format: cell-based, mouse
Method: Tumors: SQ2 cell line is a murine anaplastic cell line, which was generated from a SCC tumor that has developed spontaneously in a male BALB/c mouse. Panc02 is a murine pancreatic carcinoma cell line. CT26 cells is a N-nitroso-N-methylurethane-(NNMU) induced, undifferentiated colon carcinoma cell line which was purchased from the ATCC (CRL-2638). All cells were grown in Dulbecco's Modified Eagle Medium (DMEM) supplemented with 10% Fetal Calf Serum (Biological Industries, Beit Haemek, Israel), L-glutamine (2 mM), Penicillin (100 U/ml) and Streptomycin (100 μg/ml). […]
Cell proliferation assay: The antiproliferative effects of alpha particles and cisplatin, alone and in combination, were determined using a 3-bis (2-methoxy-4-nitro-5 sulfenyl)-(2H)-tetrazolium-5-carboxanilide (XTT) assay (Cell Proliferation Kit, Biological industries, Beit-haemek, Israel). […] After two hours of incubation, absorbance was analyzed using an automated spectrophotometer (VersaMax, Molecular Devices, USA) at 475 nm wavelength.
SQ2 cells were plated in 96 well plates implanted with ^224Ra atoms (0, 0.02, 0.063, 0.2, 0.63 and 2 Bq/mm^2, radioactive microplates). […] Cell numbers were assessed by the XTT assay 24, 48, and 72 hrs of incubation and expressed as percent of non-treated control cells.

[3] = tested on: SQ2 tumors; test: Tumor growth and survival, two 224Ra wires at the tumor base with two cisplatin doses; format: in vivo, BALB/c mice
Method: Tumor cell inoculation: Animals were inoculated intra-cutaneously with 5·10^5 SQ2 cells in 0.2 ml HBSS or 10^5 (CT26 and Panc-02) in 0.1 ml of HBSS (Biological industries, Beit haemek, Israel) into the low lateral side of the back. Local tumor growth was determined by measuring three mutually orthogonal tumor diameters with a digital caliper (Mitutoyo, Japan). The volume of tumor was calculated using the formula: V=(π/6)·D1D2D3, where D1, D2, D3 stand for the measured diameters
Wire insertion: Wires, either loaded with ^224Ra or inert, cut to a length of 5-6 mm, were placed near the tip of a 23G needle attached to a 2.5 ml syringe (Picindolor, Rome, Italy) and inserted into the tumor by a plunger placed internally along the syringe axis.
Statistical analysis: The statistical significance (p-value) of the differences between tumor volumes in the various groups was assessed by applying Student's two-sided t-test and repeated measures ANOVA. Survival analysis (Mantel-Cox test) was carried out using Statsoft Statistica 7.0.
The following experiment was performed in order to examine the effect of two ^224Ra wires inserted horizontally to the base of each tumor in combination with 2 doses of chemotherapy. The cisplatin was administered using the same regime as that described in Example 3.
A pronounced difference between tumor volumes of the irradiated group (^224Ra wires) and the animals treated with Cisplatin (CP) can be seen 10 days following DART treatment. […] Moreover, when analyzing the results of the group treated with the combination of Cisplatin and ^224Ra wires, it appears that a major growth inhibition was achieved when both modalities were administrated concomitantly. […] Twenty-four days following DART treatment, the average tumor volumes of the combined treatment group was 14 fold smaller compared to the inert control group (300 mm^3 and 4286 mm^3 respectively), and 3 fold smaller compared to the best effect achieved by the radioactive wires alone (924 mm^3). […]

[4] = tested on: lung metastases of SQ2 tumors; test: Histological assessment of lung metastatic load; format: in vivo, BALB/c mice; settings: treatment given alone, day 26, compared to inert wires
Method: Histology: Histological analysis was performed on BALB/c mice lungs, both treated and untreated. Immediately following their removal, lungs were fixed by a 4% formaldehyde solution (Sigma, Rehovot, Israel) for at least 24 hrs. The preserved specimens were embedded in paraffin, and sections (5-10 μm) were stained with hematoxylin-eosin (H&E) (Surgipath, Richmond, USA) and analyzed for metastases detection. Metastatic burden quantification was performed by summing the gray values of all the pixels in the region of interest (ROI) divided by the number of pixels using image J free software [http://rsbdotinfodotnihdotgov/ij/].
Histological assessment of lung sections was conducted in order to investigate the effect of the destruction of the primary tumor by DART wires on the development of metastases with or without the addition of cisplatin. Each 4 groups (Inert, ^224Ra wires, CP, CP+^224Ra wires) contained 3 animals. Animals were sacrificed at day 26 (lung metastases has been observed in this model at this time in previous studies) and lungs were harvested and processed for histological analysis and compared to normal lung tissues taken from healthy BALB/c mice. FIG. 5C describes the inhibition of lung metastatic load in mice treated with both intratumoral alpha irradiation and chemotherapy when compared to lungs of mice treated with inert wires.

SMILES	No. of animals with tumors following treatment [1]	proliferation inhibition ([2]; 0.3 μM cisplatin alone, 72 hours) [%]	antiproliferative effect ([2]; 3 and 30 μM, drug alone) [%]	average tumor volume, fold greater than the DART treated group ([3]; 32 days after tumor cell inoculation, cisplatin 2 x 5 mg/kg vs two 224Ra wires) [fold]	prolongation of average survival compared to inert group ([3]; two wires, cisplatin 2 x 5 mg/kg) [%]	mean survival ([3]; two wires, cisplatin 2 x 5 mg/kg, inert control 43.92 days) [days]	effect on lung metastatic burden (in words) [4]
O=c1[nH]cc(F)c(=O)[nH]1 [Two inert wires and 5-FU, 5-fluorouracil]	6/6 with	–	–	–	–	–	–
N.N.[Cl][Pt][Cl] [cisplatin]	–	21	> 60	2.14	17	51.38	decreased metastatic burden although less than the combined treatment
